# Experiments:
# [1] = tested on: alloxan-induced diabetic mice; conditions: 400 mg/kg, effect reported was very mild; cited from earlier work
# [2] = tested on: glucose transporter 4 (GLUT4); test: translocation of glucose transporter 4 (GLUT4) to the cell membrane in L6 myotubes; type: cell-based; conditions: 10 μM, 2 hours
# Description: Effects of isolated compounds on the translocation of glucose transporter 4 (GLUT4) from cytosol to the cell membrane (FIG. 2)
# After L6 cells were differentiated to myotube completely, they were treated for 2 hours with various test compounds, namely trihydroxycucurbita-5,23(E)-dien-19-al, 22(S),23(R),24(R),25-tetrahydroxycucurbita-5-ene, momordicoside A, momordicoside B (final concentration 10 μM, each) or 100 nM insulin (as positive control). The data were expressed as mean±standard error (X±SE) (n=3-4). The significance was shown as ***p<0.001 compared with solvent control groups.
# [3] = tested on: adenosine monophosphate-activated protein kinase (AMPK); test: AMPK activation (pACC, pAMPK) in 3T3-L1 adipose cells; type: cell-based; conditions: for activation of the AMPK signaling pathway (pACC, pAMPK): 10 μM, 60 minutes
# Description: Testing the activities of trihydroxycucurbita-5,23(E)-diene-19-aldehyde and 22(S), 23(R),24(R),25-tetrahydroxy cucurbita-5-ene on adenosine monophosphate-activated protein kinase (AMPK) (FIG. 3)
# 3T3-L1 adipose cells was incubated for 60 minutes in a medium containing 10 μM compounds, or in a medium containing 2 mM 5-amino4-imidazolecarboxamide nucleotide (AIC, positive control) or DMSO as a solvent control, followed by being treated with 100 nM insulin for 2 minutes or 25 minutes. Then the proteins pACC and pAMPK in cell lysate were determined with corresponding antibodies. The total amount of protein 14-3-3 was used as the quality control for sample loading.
# (§1) According the processes in experimental examples 2 and 3, 22(S),23(R),24(R),25-tetrahydroxycucurbita-5-ene was tested at different concentrations (10^−10, 10^−7, 10^−6, 10^−5 M).
# [4] = tested on: glucose transporter 4 (GLUT4); test: GLUT4 translocation in 3T3-L1 adipose cells; type: cell-based
# Description: Dose-dependent effect of 22(S),23(R),24(R),25-tetrahydroxycucurbita-5-ene on GLUT4 translocation and the phosphorylation of AMPK in 3T3-L1 adipose cells (FIG. 4)
# as §1
# A. 10 μM 22(S),23(R),24(R),25-tetrahydroxycucurbita-5-ene or 100 nM insulin (positive control) was added in the differentiated 3T3-L1 adipose cells using DMSO (final concentration of DMSO: 0.2%) as a solvent with or without wortmanin (an inhibitor of monophosphoinositide 3-kinase), and the activity on GLUT4 translocation was determined as described in experimental example 2. The data were expressed in mean±standard error (X±SE). The significances were shown as *p<0.05 and **p<0.01 compared with the solvent control groups.
# protein kinase B (Akt) [5] = test: phosphorylation of protein kinase B [Akt (S473)] in 3T3-L1 adipose cells; type: cell-based; conditions: 10 μM, 30 minutes
# Description: (§2) B. 3T3-L1 adipose cells and L6 muscle cells were incubated for 30 minutes in a medium containing 10 μM trihydroxycucurbita-5,23(E)-dien-19-al or 22(S),23(R),24(R),25-tetrahydroxycucurbita-5-ene, or a medium containing 100 nM insulin (positive control) or DMSO as a solvent control. The phosphorylation of protein kinase B [Akt (S473)] and the total protein kinase B (14-3-3) were determined with corresponding antibodies. The significances are shown as *p<0.05 and **p<0.01 compared with the solvent control groups.
# protein kinase B (Akt) [6] = test: phosphorylation of protein kinase B [Akt (S473)] in L6 muscle cells; type: cell-based; conditions: 10 μM, 30 minutes
# Description: as §2
# L6 muscle cells = test: glucose uptake in L6 muscle cells (2-[3H]-deoxy-D-glucose); type: cell-based; conditions: 10 μM, 2 hours, p<0.05 vs control
# Description: Testing the effect of momordicoside A on the glucose uptake in L6 muscle cells (FIG. 1)
# After L6 cells were differentiated to myotube completely, they were incubated in serum-free DMEM containing 0.5% BSA for 16 hours. […] After that, they were washed with 1×PBS preheated at 37° C. twice, and 0.5% BSA Krebs buffer (NaCl 140 mM, KCl 5 mM, MgSO4 2.5 mM, CaCl2 1 mM, HEPES 20 mM, pH7.4) without or with insulin (final concentration 100 nM), followed by incubation at 37° C. for 40 minutes. A 2-[1,2-3H(N)]-deoxy-D-glucose solution (final concentration 0.5 μCi/ml) was added therein and incubated for 10 minutes at 37° C. Then the reaction was terminated by washing three times with ice-cold 1×PBS and 0.15 ml of 0.1% Triton was added therein for the lysis of the cells the counting in a liquid-scintillation counter. After the CPM value was corrected with the protein amount, the glucose uptake amount of L6 cells was calculated.
# The data are shown in mean±standard error (X±SE) (n=3). The significance was shown as *p<0.05 compared with control groups under corresponding conditions.
# [7] = tested at 10^−10, 10^−7, 10^−6, 10^−5 M
Molecule,hypoglycemic effect [1],translocation of glucose transporter 4 (GLUT4) to the cell membrane [2],"activation of the AMPK signaling pathway (pACC, pAMPK) [3]","concentration at which the maximal effect on phosphorylation of AMPK was reached [3, 7]","effect of wortmanin (PI3-kinase inhibitor) on the compound's activity on GLUT4 translocation ([4]; 10 μM, with or without wortmanin)","concentration at which the maximal effect on GLUT4 translocation was reached [4, 7]",phosphorylation of protein kinase B [Akt (S473)] (protein kinase B (Akt) [5]),phosphorylation of protein kinase B [Akt (S473)] (protein kinase B (Akt) [6]),glucose uptake in L6 cells under the stimulus of insulin (L6 muscle cells; 100 nM insulin),glucose uptake in L6 cells at base level (L6 muscle cells; without insulin)
"CC(CC=CC(C)(C)O)C1CCC2(C)C3C=CC45OCC3(CCC12C)C4CCC(O)C5(C)C (stereo not drawn) [5β, 19-epoxy-3β,25-dihydroxycucurbita-6,23(E)-diene]",showed hypoglycemic effect,,,,,,,,,
"C[C@H]([C@H](O)[C@@H](O)[C@@H](O)C(C)(C)O)[C@H]1CC[C@@]2(C)C3CC=C4C(CC[C@H](O)C4(C)C)[C@]3(C)CC[C@]12C (stereo partly drawn) [22(S),23(R),24(R),25-tetrahydroxycucurbita-5-ene]",,capable of promoting the translocation,capable of activating the AMPK signaling pathway significantly,10^−6 M,did not affect the activity,10^−6 M,not able to increase the phosphorylation of protein kinase B,not able to increase the phosphorylation of protein kinase B,,
"C[C@H](C/C=C/C(C)(C)O)[C@H]1CC[C@@]2(C)C3[C@@H](O)C=C4C(CC[C@H](O)C4(C)C)[C@]3(C=O)CC[C@]12C (stereo partly drawn) [trihydroxycucurbita-5,23(E)-dien-19-al]",showed hypoglycemic effect,capable of promoting the translocation,capable of activating the AMPK signaling pathway significantly,,,,not able to increase the phosphorylation of protein kinase B,not able to increase the phosphorylation of protein kinase B,,
momordicoside A,,,,,,,,,increased significantly,increased significantly

# Source: patent publication US8722634B2, “Use of compounds extracted from Momordica charantia L. in the manufacture of medicaments for prevention and treatment of diabetes and obesity” (Shanghai Institute of Materia Medica, Chinese Academy of …, priority 2008, dated 2014)
